These are literature values, as cited in patent US20130040971A1, “6-CYCLOALKYL-PYRAZOLOPYRIMIDINONES FOR THE TREATMENT OF CNS DISORDERS” (Boehringer Ingelheim International GmbH, priority 2011, published 2013).

Structures are written as SMILES.

One series deals with human PDE9A (Homo sapiens, UniProt O76083). Conditions: concentrations of up to 100 micromolar (μM).
Sequence of human PDE9A (O76083 whole entry): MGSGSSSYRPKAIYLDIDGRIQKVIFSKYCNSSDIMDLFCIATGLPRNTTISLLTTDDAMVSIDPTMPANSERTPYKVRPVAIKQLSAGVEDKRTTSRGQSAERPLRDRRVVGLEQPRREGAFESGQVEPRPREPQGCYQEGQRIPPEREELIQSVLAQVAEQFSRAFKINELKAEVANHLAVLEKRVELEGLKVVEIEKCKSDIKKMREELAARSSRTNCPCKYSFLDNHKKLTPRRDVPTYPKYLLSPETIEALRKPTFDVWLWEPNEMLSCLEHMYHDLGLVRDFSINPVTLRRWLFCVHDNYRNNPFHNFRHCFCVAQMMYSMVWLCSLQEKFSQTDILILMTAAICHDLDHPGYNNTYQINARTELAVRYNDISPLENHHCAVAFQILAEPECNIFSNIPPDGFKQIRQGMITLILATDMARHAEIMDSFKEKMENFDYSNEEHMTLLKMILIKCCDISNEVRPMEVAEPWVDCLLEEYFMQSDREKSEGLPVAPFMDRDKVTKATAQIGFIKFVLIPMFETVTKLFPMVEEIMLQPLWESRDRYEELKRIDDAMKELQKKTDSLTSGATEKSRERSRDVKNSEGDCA
Consider `CC(C)Cn1c(=O)n(C)c(=O)c2[nH]cnc21` [IBMX], for which the “inhibition on the isolated enzyme (human PDE9A)” value (“inhibition … (human PDE9A)” below) is listed as “no inhibition”. `CC(=O)Nc1ccc(-c2c[nH]c(=O)cn2)cc1` [SKF94120]: the “inhibition … (human PDE9A)” value is “no inhibition”. Regarding `OCCN(CCO)c1nc(N2CCCCC2)c2nc(N(CCO)CCO)nc(N3CCCCC3)c2n1` [dipyridamole], the “inhibition … (human PDE9A)” value is listed as “no inhibition”. For `COc1ccc(C2CNC(=O)C2)cc1OC1CCCC1` (stereo not drawn) [rolipram], the “inhibition … (human PDE9A)” value is reported as “no inhibition”. Take `CCOC(=O)C1=C[C@]2(CC)CCCN3CCc4c(n1c1ccccc41)[C@@H]32` [vinpocetine]: the “inhibition … (human PDE9A)” value is recorded as “no inhibition”.

A further series concerns the target T1, Murine PDE9A (Mus musculus, UniProt O70628).
T1 sequence (O70628 1-534): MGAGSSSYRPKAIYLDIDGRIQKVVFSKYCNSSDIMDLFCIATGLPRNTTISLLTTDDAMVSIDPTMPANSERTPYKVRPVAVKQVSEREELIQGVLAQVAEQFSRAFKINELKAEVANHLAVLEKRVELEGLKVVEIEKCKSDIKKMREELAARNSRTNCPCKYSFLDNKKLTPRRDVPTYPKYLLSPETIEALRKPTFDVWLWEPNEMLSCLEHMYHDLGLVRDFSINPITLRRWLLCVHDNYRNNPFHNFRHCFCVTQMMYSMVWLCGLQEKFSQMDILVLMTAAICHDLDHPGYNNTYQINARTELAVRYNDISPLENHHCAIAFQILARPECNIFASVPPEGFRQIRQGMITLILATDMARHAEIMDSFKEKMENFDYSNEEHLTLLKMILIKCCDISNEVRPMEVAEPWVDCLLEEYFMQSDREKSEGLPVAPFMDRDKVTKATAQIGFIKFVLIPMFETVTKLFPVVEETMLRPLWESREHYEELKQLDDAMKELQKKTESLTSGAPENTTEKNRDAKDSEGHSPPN
Conditions: concentrations below 200 micromolar.
With `CC(C)Cn1c(=O)n(C)c(=O)c2[nH]cnc21` [IBMX], the “inhibition of murine PDE9A” value is listed as “not inhibited”.
